# From patent publication US8791132B2, “Compounds and methods for treatment of hypertension” (Medivation Technologies, Inc., priority 2011, dated 2014)
# Legend:
# [1] = biological target: T1, rat adrenergic α1B receptor (Rattus norvegicus, UniProt P15823); assay: Radioligand binding, adrenergic α1B ([3H]Prazosin); details: [3H]Prazosin, repeat assays, each datapoint shown; for inhibition at 0.1 µM / Percentage inhibition of ligand binding, Adrenergic α1B: compound at 0.1 μM; for inhibition at 0.1 µM / inhibition at 0.03 µM: read-out: Percentage inhibition of ligand binding, Adrenergic α1B; for Percentage inhibition of ligand binding, Adrenergic α1B: 0.1 µM; for inhibition at 0.03 µM: compound at 0.03 μM
# T1 construct: rat adrenergic α1B receptor obtained from Wistar Rat liver; from tissue; host or cells: Wistar rat liver
# T1 sequence (P15823 1-515): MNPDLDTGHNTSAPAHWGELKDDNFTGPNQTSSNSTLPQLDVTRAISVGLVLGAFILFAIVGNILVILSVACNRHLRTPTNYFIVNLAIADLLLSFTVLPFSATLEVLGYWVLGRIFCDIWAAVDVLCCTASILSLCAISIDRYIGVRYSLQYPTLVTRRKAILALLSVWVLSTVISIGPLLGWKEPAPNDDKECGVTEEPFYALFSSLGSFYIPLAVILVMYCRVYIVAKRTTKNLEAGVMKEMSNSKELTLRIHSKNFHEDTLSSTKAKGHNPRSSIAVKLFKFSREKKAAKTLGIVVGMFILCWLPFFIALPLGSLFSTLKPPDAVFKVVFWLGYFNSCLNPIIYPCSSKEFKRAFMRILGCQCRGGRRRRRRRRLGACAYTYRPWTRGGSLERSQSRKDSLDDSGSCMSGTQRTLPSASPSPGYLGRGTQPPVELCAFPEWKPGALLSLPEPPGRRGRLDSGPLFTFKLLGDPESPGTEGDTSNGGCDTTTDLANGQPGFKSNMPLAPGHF
# Method: To evaluate in radioligand binding assays the activity of compounds of the invention, rat adrenergic α1B receptor obtained from Wistar Rat liver (Garcia-S'ainz, J. et al, Biochem. Biophys. Res. Commun. 186:760, 1992; Michel, A. et al, Br. J. Pharmacol. 98:883, 1989) in a modified Tris-HCl buffer (50 mM Tris-HCl buffer, pH 7.4, 0.5 mM EDTA) was used. Compounds of the invention were incubated with 0.25 nM [^3H]Prazosin for 60 min at 25° C. Non-specific binding was estimated in the presence of 10 μM phentolamine. Receptor proteins were filtered and washed, the filters were then counted to determine [^3H]Prazosin specifically bound. […] Compounds of the invention were tested in this biochemical assay and percent inhibition of specific binding was determined. Biochemical assay results are presented as the percent inhibition of specific binding in Table B1.
# [2] = biological target: T2, human recombinant adrenergic α2A receptor (Homo sapiens, UniProt P08913); assay: Radioligand binding, adrenergic α2A ([3H]MK-912); details: for Percentage inhibition of ligand binding, Adrenergic α2A / inhibition at 0.1 µM: compound at 0.1 μM, [3H]MK-912, repeat assays, each datapoint shown; for inhibition at 0.1 µM: read-out: Percentage inhibition of ligand binding, Adrenergic α2A
# T2 construct: expressed in transfected cells; host or cells: insect Sf9 cells
# T2 sequence (P08913 1-465): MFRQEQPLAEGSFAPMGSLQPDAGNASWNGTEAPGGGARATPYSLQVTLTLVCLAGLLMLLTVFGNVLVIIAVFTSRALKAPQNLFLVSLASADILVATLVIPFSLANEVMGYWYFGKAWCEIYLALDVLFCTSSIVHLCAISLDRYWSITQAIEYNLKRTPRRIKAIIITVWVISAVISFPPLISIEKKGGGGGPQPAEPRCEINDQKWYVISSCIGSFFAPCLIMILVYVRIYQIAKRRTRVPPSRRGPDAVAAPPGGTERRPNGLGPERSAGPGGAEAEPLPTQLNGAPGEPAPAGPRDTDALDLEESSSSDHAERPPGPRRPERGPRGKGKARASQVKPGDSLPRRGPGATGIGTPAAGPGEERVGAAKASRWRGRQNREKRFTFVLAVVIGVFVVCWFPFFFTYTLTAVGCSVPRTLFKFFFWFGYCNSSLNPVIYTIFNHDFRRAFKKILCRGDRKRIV
# Method in brief: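 Receptor expressed in insect Sf9 cells, assayed in 50 mM Tris-HCl pH 7.4 with 12.5 mM MgCl2 and 2 mM EDTA. Compounds incubated with 1 nM [3H]MK-912 for 60 min at 25 °C; nonspecific binding defined with 10 μM WB-4101. Filter-bound radioactivity counted; values are percent inhibition of specific binding.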
# [3] = biological target: T3, human recombinant adrenergic α2B receptor (Homo sapiens, UniProt P18089); assay: Radioligand binding, adrenergic α2B ([3H]Rauwolscine); details: for Percentage inhibition of ligand binding, Adrenergic α2B / inhibition at 0.03 µM: compound at 0.03 μM, [3H]Rauwolscine, repeat assays, each datapoint shown; for Percentage inhibition of ligand binding, Adrenergic α2B: 0.03 µM; for inhibition at 0.03 µM: read-out: Percentage inhibition of ligand binding, Adrenergic α2B; for Ki: read-out: Ki α2B
# T3 construct: expressed in transfected cells; host or cells: CHO-K1
# T3 sequence (P18089 1-450): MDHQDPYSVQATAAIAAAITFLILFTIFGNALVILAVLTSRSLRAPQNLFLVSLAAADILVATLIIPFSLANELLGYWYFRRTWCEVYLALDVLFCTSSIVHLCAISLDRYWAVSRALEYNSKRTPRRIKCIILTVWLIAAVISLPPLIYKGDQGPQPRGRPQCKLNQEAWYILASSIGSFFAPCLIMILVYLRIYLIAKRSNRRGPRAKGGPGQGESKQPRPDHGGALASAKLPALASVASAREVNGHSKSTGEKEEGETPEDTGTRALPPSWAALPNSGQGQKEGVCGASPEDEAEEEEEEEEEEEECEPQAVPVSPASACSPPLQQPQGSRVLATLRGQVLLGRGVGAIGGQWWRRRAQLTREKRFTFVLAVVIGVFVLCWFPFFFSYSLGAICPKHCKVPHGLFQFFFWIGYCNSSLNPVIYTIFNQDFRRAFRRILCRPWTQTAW
# Method in brief: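 Readout: percent inhibition of specific [3H]Rauwolscine binding, measured by filtration and counting. Conditions: CHO-K1 cell-expressed receptor, 2.5 nM radioligand, 60 min, 25° C, Tris-HCl pH 7.4 buffer with MgCl2, EDTA, BSA. Non-specific binding: 10 μM Prazosin.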
inhibition at 0.1 µM [1],"Percentage inhibition of ligand binding, Adrenergic α2A ([2]; 0.1 µM)","Percentage inhibition of ligand binding, Adrenergic α2B [3]","Percentage inhibition of ligand binding, Adrenergic α1B [1]",inhibition at 0.1 µM [2],inhibition at 0.03 µM [3],"Percentage inhibition of ligand binding, Adrenergic α2A [2]",inhibition at 0.03 µM [1],Ki [2],Ki [3],SMILES
16%,−6%,28%,–,–,–,–,–,–,–,"CC(C)(O)CCN1CCc2c(c3cc(Cl)ccc3n2CC(O)c2ccncc2)C1 (single isomer, unassigned) [11a, 4-[8-chloro-5-(2-hydroxy-2-pyridin-4-yl-ethyl)-1,3,4,5-tetrahydro-pyrido[4,3-b]indol-2-yl]-2-methyl-butan-2-ol]"
–,13%,64%,18%,–,–,–,–,–,–,"CC(C)(O)CCN1CCc2c(c3cc(Cl)ccc3n2CC(O)c2ccncc2)C1 (single isomer, unassigned) [11b, 4-[8-chloro-5-(2-hydroxy-2-pyridin-4-yl-ethyl)-1,3,4,5-tetrahydro-pyrido[4,3-b]indol-2-yl]-2-methyl-butan-2-ol]"
–,–,–,23%,3%,24%,–,–,–,–,"CC(O)(Cn1c2c(c3cc(Cl)cnc31)CNCC2)c1ccncc1 (single isomer, unassigned) [12a, 1-(3-chloro-5,6,7,8-tetrahydro-1,6,9-triaza-fluoren-9-yl)-2-pyridin-4-yl-propan-2-ol]"
–,–,21%,8%,–,–,3%,–,–,–,"CC(O)(Cn1c2c(c3cc(Cl)cnc31)CNCC2)c1ccncc1 (single isomer, unassigned) [12b, 1-(3-chloro-5,6,7,8-tetrahydro-1,6,9-triaza-fluoren-9-yl)-2-pyridin-4-yl-propan-2-ol]"
–,−2%,37%,75%,–,–,–,–,–,–,"Cc1ccc2c(c1)c1c(n2CC(O)c2ccncc2)CCN(C)CC1 (single isomer, unassigned) [13a, 2-(3,9-dimethyl-2,3,4,5-tetrahydroazepino[4,5-b]indol-6(1H)-yl)-1-(pyridin-4-yl)ethanol]"
43%,–,98%,44%,–,97%,–,17%,123 nM,1.92 nM,"Cc1ccc2c(c1)c1c(n2CC(C)(O)c2cccnc2)CN(C)CC1 (single isomer, unassigned) [14a, 1-(2,6-dimethyl-1,2,3,4-tetrahydro-β-carbolin-9-yl)-2-pyridin-3-yl-propan-2-ol]"
–,6%,65%,81%,–,–,–,–,–,–,"CN1CCc2c(n(CC(O)c3ccncc3)c3ccc(Cl)cc23)CC1 (single isomer, unassigned) [15a, 2-(9-chloro-3-methyl-2,3,4,5-tetrahydroazepino[4,5-b]indol-6(1H)-yl)-1-(pyridin-4-yl)ethanol]"
89%,24%,–,93%,21%,103%,–,73%,112 nM,0.64 nM,"CN1CCc2c(n(CC(O)c3ccncc3)c3ccc(Cl)cc23)CC1 (single isomer, unassigned) [15b, 2-(9-chloro-3-methyl-2,3,4,5-tetrahydroazepino[4,5-b]indol-6(1H)-yl)-1-(pyridin-4-yl)ethanol]"
–,9%,33%,47%,–,–,–,–,–,–,"Cc1ccc2c(c1)c1c(n2CC(C)(O)c2ccccn2)CN(C)CC1 (single isomer, unassigned) [16a, 1-(2,6-dimethyl-1,2,3,4-tetrahydro-β-carbolin-9-yl)-2-pyridin-2-yl-propan-2-ol]"
